Where “and” joins values, the source holds several entries; their conditions need not be identical. Equal entries are not always repeated.
Tests used:
Experiment in all cases: biochemical
FYN = FYN (Homo sapiens, UniProt P06241)
MAP4K2 = biological target: T1, MAP4K2 (Homo sapiens, UniProt Q12851)
T1 sequence (Q12851 1-820): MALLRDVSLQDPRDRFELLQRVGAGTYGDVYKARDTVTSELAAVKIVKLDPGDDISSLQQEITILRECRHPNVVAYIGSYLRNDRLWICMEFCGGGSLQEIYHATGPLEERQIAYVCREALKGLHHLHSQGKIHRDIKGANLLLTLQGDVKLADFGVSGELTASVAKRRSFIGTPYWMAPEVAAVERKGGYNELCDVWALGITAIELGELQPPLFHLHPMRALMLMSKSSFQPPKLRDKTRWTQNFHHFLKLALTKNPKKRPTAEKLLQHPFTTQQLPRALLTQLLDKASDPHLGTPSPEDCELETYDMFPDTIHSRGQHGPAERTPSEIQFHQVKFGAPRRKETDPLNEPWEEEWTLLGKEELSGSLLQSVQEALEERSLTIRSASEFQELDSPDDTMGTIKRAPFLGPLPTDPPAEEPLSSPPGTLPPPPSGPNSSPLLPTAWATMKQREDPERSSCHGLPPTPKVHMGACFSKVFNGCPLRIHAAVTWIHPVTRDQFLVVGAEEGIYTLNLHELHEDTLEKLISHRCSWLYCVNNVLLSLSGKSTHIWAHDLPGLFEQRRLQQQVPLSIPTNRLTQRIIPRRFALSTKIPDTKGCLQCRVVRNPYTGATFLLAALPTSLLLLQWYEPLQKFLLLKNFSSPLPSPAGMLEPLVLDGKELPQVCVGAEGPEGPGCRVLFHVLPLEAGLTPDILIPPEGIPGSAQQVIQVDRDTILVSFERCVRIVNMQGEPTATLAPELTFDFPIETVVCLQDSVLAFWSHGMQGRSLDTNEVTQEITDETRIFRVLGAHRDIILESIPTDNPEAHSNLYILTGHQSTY

ADCK1 = biological target: T2, ADCK1 (Homo sapiens, UniProt Q86TW2)
T2 sequence (Q86TW2 1-530): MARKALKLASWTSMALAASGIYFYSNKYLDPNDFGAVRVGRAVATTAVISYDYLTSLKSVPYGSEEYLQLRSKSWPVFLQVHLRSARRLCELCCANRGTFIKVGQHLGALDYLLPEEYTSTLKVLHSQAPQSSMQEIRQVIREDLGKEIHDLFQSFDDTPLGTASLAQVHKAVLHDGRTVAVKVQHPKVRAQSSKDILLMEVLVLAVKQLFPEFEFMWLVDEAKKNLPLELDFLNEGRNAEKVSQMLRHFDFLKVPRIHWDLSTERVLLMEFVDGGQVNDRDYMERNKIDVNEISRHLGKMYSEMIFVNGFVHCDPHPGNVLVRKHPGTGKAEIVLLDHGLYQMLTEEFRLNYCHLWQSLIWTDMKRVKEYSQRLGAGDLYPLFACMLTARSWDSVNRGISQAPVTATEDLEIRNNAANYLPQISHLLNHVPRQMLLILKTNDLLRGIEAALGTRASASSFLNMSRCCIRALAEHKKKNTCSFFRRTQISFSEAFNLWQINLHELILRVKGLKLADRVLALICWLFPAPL

GAK = biological target: T3, GAK (Homo sapiens, UniProt O14976)
T3 sequence (O14976 1-1311): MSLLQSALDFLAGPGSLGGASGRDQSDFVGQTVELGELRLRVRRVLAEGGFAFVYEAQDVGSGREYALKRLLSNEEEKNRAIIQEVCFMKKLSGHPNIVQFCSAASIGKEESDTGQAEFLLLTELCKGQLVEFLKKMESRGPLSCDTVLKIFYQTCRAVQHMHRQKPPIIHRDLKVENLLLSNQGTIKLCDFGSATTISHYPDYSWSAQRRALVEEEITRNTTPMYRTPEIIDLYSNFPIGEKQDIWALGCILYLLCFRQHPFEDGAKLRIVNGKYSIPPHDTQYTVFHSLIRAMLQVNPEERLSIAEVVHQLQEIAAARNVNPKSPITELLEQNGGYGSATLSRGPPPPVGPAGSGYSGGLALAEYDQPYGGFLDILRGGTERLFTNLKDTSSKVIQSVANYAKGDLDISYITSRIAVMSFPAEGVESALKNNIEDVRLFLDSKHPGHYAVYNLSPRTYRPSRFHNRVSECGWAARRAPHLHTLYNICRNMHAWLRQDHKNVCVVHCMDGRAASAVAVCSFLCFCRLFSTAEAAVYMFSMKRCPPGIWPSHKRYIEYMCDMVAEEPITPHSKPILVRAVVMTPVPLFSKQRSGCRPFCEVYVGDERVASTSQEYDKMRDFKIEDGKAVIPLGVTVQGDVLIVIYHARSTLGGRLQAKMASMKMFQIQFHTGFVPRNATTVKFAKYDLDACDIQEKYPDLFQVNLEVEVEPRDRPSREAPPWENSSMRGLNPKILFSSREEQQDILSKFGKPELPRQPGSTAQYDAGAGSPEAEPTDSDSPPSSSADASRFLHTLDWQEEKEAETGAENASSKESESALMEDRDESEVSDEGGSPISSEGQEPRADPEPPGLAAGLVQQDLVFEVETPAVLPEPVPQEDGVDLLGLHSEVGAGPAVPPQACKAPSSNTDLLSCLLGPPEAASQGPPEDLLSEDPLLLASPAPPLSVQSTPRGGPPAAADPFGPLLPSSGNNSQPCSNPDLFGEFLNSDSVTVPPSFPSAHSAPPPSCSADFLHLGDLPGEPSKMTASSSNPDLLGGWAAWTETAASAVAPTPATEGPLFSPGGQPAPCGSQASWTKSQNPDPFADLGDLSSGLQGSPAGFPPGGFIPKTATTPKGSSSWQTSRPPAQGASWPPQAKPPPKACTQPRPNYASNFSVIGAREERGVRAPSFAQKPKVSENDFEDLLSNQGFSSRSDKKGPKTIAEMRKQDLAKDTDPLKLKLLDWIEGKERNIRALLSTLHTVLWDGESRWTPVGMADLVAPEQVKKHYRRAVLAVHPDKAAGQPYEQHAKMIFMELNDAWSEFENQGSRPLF

NTRK1 = NTRK1 (Homo sapiens, UniProt P04629)
NTRK1, sequence (P04629 whole entry): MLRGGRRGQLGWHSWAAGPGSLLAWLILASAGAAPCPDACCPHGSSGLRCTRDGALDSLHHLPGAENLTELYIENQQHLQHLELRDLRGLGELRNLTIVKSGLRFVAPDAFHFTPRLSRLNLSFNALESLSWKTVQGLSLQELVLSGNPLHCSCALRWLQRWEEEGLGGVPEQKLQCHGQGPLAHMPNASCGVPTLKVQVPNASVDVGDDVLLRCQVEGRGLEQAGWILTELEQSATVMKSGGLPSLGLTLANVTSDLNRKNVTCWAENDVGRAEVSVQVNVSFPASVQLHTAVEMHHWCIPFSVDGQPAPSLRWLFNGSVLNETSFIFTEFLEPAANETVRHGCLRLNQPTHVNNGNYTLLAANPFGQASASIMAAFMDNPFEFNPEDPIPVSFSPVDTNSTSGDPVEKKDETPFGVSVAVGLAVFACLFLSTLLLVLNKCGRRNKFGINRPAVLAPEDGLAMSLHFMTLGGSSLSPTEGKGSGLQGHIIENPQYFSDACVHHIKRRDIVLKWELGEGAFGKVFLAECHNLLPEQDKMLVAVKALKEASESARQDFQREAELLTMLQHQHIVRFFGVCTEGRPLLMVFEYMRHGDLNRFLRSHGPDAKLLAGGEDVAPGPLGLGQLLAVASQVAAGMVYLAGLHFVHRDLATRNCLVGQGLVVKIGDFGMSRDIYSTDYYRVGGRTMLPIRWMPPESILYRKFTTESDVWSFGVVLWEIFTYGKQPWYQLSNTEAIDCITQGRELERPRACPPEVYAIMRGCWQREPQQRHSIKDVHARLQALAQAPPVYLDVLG

FYN, sequence (P06241 whole entry): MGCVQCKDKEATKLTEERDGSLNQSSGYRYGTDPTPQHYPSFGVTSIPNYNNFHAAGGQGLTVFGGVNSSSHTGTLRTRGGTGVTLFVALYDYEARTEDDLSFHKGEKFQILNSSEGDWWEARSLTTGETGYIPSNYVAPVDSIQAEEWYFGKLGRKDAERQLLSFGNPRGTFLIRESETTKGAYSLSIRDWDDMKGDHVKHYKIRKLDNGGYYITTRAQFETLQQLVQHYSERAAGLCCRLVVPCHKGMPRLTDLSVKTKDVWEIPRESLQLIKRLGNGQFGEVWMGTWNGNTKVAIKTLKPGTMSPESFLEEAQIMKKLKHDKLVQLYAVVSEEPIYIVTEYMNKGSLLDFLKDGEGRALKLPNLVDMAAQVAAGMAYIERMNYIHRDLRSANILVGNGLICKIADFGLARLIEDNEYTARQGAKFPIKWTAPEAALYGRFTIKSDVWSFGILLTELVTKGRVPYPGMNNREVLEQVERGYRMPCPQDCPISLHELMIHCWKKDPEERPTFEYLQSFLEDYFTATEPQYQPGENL

## CN(C)CC(O)COc1ccc(Nc2ncc([N+](=O)[O-])c(Nc3ccccc3O)n2)cc1.O=C(O)C(F)(F)F (stereo not drawn) [TCMDC-141399]
FYN
  IC50: > 20000 nM
MAP4K2
  IC50: > 20000 nM
ADCK1
  IC50: 1800 nM
GAK
  IC50: 1500 nM and 2300 nM
NTRK1
  IC50: > 20000 nM

## Cl.NCC1(c2nc(-c3ccc(Cl)c(O)c3)c(-c3ccncc3)[nH]2)CCCCC1 [TCMDC-141154]
FYN
  IC50: 190 nM and 170 nM
MAP4K2
  IC50: > 20000 nM
ADCK1
  IC50: > 20000 nM
GAK
  IC50: > 20000 nM
NTRK1
  IC50: > 20000 nM

## CN1CCN(c2ccc(Nc3ncc(C#N)c(Nc4ccccc4C(N)=O)n3)cc2)CC1.Cl [TCMDC-134116]
FYN
  IC50: 300 nM and 240 nM
MAP4K2
  IC50: 1000 nM
ADCK1
  IC50: 1000 nM
GAK
  IC50: 82 nM and 100 nM
NTRK1
  IC50: 2200 nM and 1500 nM

Source: publication PMC4774911, “Biochemical Screening of Five Protein Kinases from Plasmodium falciparum against 14,000 Cell-Active Compounds” (PLoS ONE, 2016)
